Measured values published in article PMC5424463, “A strategy based on nucleotide specificity leads to a subfamily-selective and cell-active inhibitor of N ^6-methyladenosine demethylase FTO” (Chemical Science, 2014).

Target: T1, ALKBH5 (Homo sapiens, UniProt Q6P6C2)
T1 construct: pNIC28-Bsa4 ALKBH5 (encompassing residues 66-292); made in house; host or cells: E. coli BL21 (DE3) Rosetta T1R
Test: HPLC-based inhibition assay for ALKBH5, m6A-ssRNA substrate
Type: biochemical
Settings: 5-mer m6A-ssRNA substrate
Protocol: Figure S4. Enzyme inhibition curves of 12 against FTO and ALKBH5, as determined by a HPLC-based assay using m6A-containing ssRNA substrates. The substrate sequences for the FTO and ALKBH5 assays are 5’-CUUGUCA(m6A)CAGCAGA-3’ and 5’-GG(m6A)CU-3’, […]
respectively, which represents >100-fold selectivity for FTO over ALKBH5.
(1 picture or pasted object on this page, not shown here) […]
chloride) over 18 min, at a flow rate of 1 mL/min at 40°C. The UV detection wavelength was set at 266 nm. The percentage inhibition was estimated based on the peak areas of the m6A-ssRNA substrate and the corresponding demethylated product. For IC50 determination, eight […]
were then calculated from the variation in percentage demethylation at different inhibitor concentrations, using nonlinear regression, with normalized dose-response fit on GraphPad […]
HPLC-based inhibition assays for AlkB and ALKBH2
The assay was modified from previously reported method.[18] A 15-mer m1A-ssDNA substrate with the sequence 5’-AAAGCAG(m1A)ATTCGAA-3 ’ (Yale University, W.M.
Keck Foundation Biotechnology Resource Laboratory) was used in this inhibition assay. The assay was performed in triplicate for each inhibitor, in a final reaction volume of 25 µL. […]

T1 sequence (Q6P6C2 66-292): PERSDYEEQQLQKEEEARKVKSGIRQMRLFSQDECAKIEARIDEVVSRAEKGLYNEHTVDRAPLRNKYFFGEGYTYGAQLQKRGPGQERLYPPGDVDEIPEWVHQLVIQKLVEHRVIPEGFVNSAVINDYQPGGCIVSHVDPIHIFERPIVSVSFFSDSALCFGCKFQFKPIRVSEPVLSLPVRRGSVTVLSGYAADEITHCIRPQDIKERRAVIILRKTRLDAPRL

`O=C(O)/C=C/C(=O)NNC(=O)c1cnccc1Cc1ccccc1` [Compound 12] was tested, and the IC50 was 96.5 µM.
